Test results reported in PubChem BioAssay (NCI).
Where “and” joins values, the source holds several entries; their conditions need not be identical. Equal entries are not always repeated.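 Test compounds were applied to cells in 96-well plates for 48 hours at 5 doses. GI50: concentration for 50% inhibition of growth. TGI is the concentration that stops growth completely.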

What was measured:
Experiment in all cases: DTP human tumour cell line panel, 48 h
SF-268 CNS = test system: SF-268 CNS
SNB-19 CNS = test system: SNB-19 CNS
MALME-3M melanoma = test system: MALME-3M melanoma
CCRF-CEM leukemia = test system: CCRF-CEM leukemia
SK-MEL-28 melanoma = test system: SK-MEL-28 melanoma
OVCAR-5 ovarian = test system: OVCAR-5 ovarian
SN12C renal = test system: SN12C renal
EKVX NSCLC = test system: EKVX NSCLC
OVCAR-8 ovarian = test system: OVCAR-8 ovarian
TK-10 renal = test system: TK-10 renal

Compound | GI50 (SF-268 CNS) [µM] | TGI (SF-268 CNS) | GI50 (SNB-19 CNS) [µM] | TGI (SNB-19 CNS) | GI50 (MALME-3M melanoma) [µM] | TGI (MALME-3M melanoma) | GI50 (CCRF-CEM leukemia) [µM] | TGI (CCRF-CEM leukemia) | GI50 (SK-MEL-28 melanoma) [µM] | TGI (SK-MEL-28 melanoma) | GI50 (OVCAR-5 ovarian) [µM] | TGI (OVCAR-5 ovarian) | GI50 (SN12C renal) [µM] | TGI (SN12C renal) | GI50 (EKVX NSCLC) [µM] | TGI (EKVX NSCLC) | GI50 (OVCAR-8 ovarian) [µM] | TGI (OVCAR-8 ovarian) | GI50 (TK-10 renal) [µM] | TGI (TK-10 renal)
O=[N+]([O-])c1ccc([I+]c2ccccc2)cc1 | 1.65 | 13.1 µM and 3.11 µM | 1.63 | 9.99 µM and 3.03 µM | 1.31 | 11.2 µM and 3.54 µM | 3.21 | > 100 µM and 10.9 µM | 1.92 | 10.1 µM and 4.57 µM | 1.78 | 17 µM and 3.34 µM | 1.4 | 3.26 µM and 2.89 µM | 1.5 | 32 µM and 3.32 µM | 2.78 | 12.2 µM and 10.3 µM | 3.61 | 26.9 µM and 15.5 µM
COc1cc(-c2cn(-c3ccc(Cl)cc3)c(=O)n2-c2ccccc2)cc(OC)c1OC | > 68.9 | > 100 µM | 44.7 | > 100 µM | > 49.8 | > 94.9 µM | > 100 | > 100 µM | 56.4 | > 100 µM | > 100 | > 100 µM | > 100 | > 100 µM | > 100 | > 100 µM | 40.8 | > 100 µM | > 100 | > 100 µM
Cn1c(=O)c2c(nc3n2C(CCl)CO3)n(C)c1=O (stereo not given) | – | > 100 µM | – | > 100 µM | – | > 100 µM | – | > 100 µM | – | > 100 µM | – | > 100 µM | – | > 100 µM | – | > 100 µM | – | > 100 µM | – | > 100 µM
COc1cc2c(cc1OCCCN1CCN(CCCOc3cc4c(cc3OC)C(=O)C3CCC[C@H]3C=N4)CC1)N=C[C@@H]1CCCC1C2=O (stereo not given in full) | 3 | > 100 µM | 23.7 | > 100 µM | 2.83 | 21.5 µM | 0.478 | > 74.3 µM | 32.9 | > 100 µM | 4.84 | > 27.2 µM | 10.4 | > 100 µM | 34.2 | > 100 µM | 11.6 | > 52.3 µM | 7.9 | > 100 µM
Nc1nccc(C#Cc2cncnc2Nc2ccc(OCc3cccc(F)c3)c(Cl)c2)n1 | 4.5 | 9.28 µM | 4.79 | 10 µM | 5.26 | 13.1 µM | 1.33 | > 19.2 µM | 4.57 | 8.29 µM | 5.45 | 11.3 µM | 3.22 | 9.98 µM | 4.51 | 9.85 µM | 4.94 | 24.8 µM | 4.5 | 8.22 µM
CCN1C(=O)N(CC)C2C1NN=c1s/c(=C\c3ccc([N+](=O)[O-])cc3)c(=O)n12 (stereo not given) | 0.895 | > 67.7 µM | 0.683 | > 84.3 µM | 0.587 | > 100 µM | 0.411 | > 46.7 µM | 1.93 | > 100 µM | 1.22 | > 91.1 µM | 0.677 | > 64.4 µM | 0.893 | > 100 µM | 0.885 | > 91.1 µM | > 35.4 | > 100 µM
CNS(=O)(=O)NN(C)S(=O)(=O)c1ccc(C)cc1 | – | > 100 µM | – | > 100 µM | – | > 100 µM | – | > 100 µM | – | > 100 µM | – | > 100 µM | – | > 100 µM | – | > 100 µM | – | > 100 µM | – | > 100 µM
CCN=C(N)CSS(=O)(=O)O | – | > 100 µM | – | > 100 µM | – | > 100 µM | – | > 100 µM | – | > 100 µM | – | > 100 µM | – | > 100 µM | – | > 100 µM | – | > 100 µM | – | > 100 µM
Cn1cc(-c2ccc3c(c2)ncn3-c2ccc(CC(=O)Nc3cc(C(C)(C)C)on3)cc2)cn1 | 0.674 | > 46.5 µM | 3.5 | > 100 µM | 1.29 | 12.6 µM | 3.23 | > 100 µM | 2.65 | > 100 µM | 1.35 | > 27.2 µM | 0.379 | 8.09 µM | 1.75 | 31.1 µM | 3.16 | > 43.3 µM | 0.671 | 3.17 µM
COc1cc2c(c(Br)c1N)-c1cc(Br)c(N)cc1C2=O | 7.37 | > 100 µM | > 100 | > 100 µM | > 100 | > 100 µM | > 100 | > 100 µM | > 100 | > 100 µM | 0.0894 | > 100 µM | 6.33 | > 100 µM | 9.99 | > 100 µM | 4.9 | > 100 µM | 0.354 | > 100 µM
O=S(=O)(Nc1ccc2ccc3cccc4ccc1c2c34)c1ccccc1 | – | > 100 µM | – | > 100 µM | – | > 100 µM | – | 53 µM | – | > 100 µM | – | > 100 µM | – | 65.4 µM | – | > 100 µM | – | > 100 µM | – | > 100 µM
CC(=O)NNc1nc(C)c(C(/C=C/c2ccc3c(c2)OCO3)=N/NC(=O)c2ccncc2)s1 | – | > 100 µM | – | > 100 µM | – | > 100 µM | – | > 100 µM | – | > 100 µM | – | > 100 µM | – | > 100 µM | – | > 100 µM | – | > 100 µM | – | > 100 µM
